# Measured values reported in ChEMBL document CHEMBL1201862, “PubChem BioAssay data set” (2004).
#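 Exposure lasted 48 hours, with cells grown in 96-well plates and compounds tested at five concentrations. Abbreviation: GI50, concentration required for 50% inhibition of growth.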 Active and inactive are the calls of the source. Cut-off read from the data, not from the text of the source: active = GI50 up to about 1.1 µM and inactive = higher.
# Experiments:
# Test in all cases: NCI-60 cell line screen, 48 h
# A498 = test system: A498
# ACHN = test system: ACHN
# NCI-H460 = test system: NCI-H460
# HT-29 = test system: HT-29
# M14 = test system: M14
# SF-295 = test system: SF-295
# U-251 = test system: U-251
# MDA-MB-231 = test system: MDA-MB-231
# UO-31 = test system: UO-31
# NCI-H23 = test system: NCI-H23
# OVCAR-3 = test system: OVCAR-3
# CCRF-CEM = test system: CCRF-CEM
# T47D = test system: T47D
# SN12C = test system: SN12C
# SR = test system: SR
# HOP-62 = test system: HOP-62
# SW-620 = test system: SW-620
# TK-10 = test system: TK-10
# SF-539 = test system: SF-539
# HCT-116 = test system: HCT-116
# LOX IMVI = test system: LOX IMVI
# MCF7 = test system: MCF7
# NCI-H522 = test system: NCI-H522
# RPMI-8226 = test system: RPMI-8226
# UACC-257 = test system: UACC-257
# MOLT-4 = test system: MOLT-4
# NCI/ADR-RES = test system: NCI/ADR-RES
# MDA-N = test system: MDA-N
# OVCAR-8 = test system: OVCAR-8
# 786-0 = test system: 786-0
# SK-MEL-28 = test system: SK-MEL-28
# MDA-MB-435 = test system: MDA-MB-435
# UACC-62 = test system: UACC-62
# K562 = test system: K562
# OVCAR-4 = test system: OVCAR-4
# SK-MEL-5 = test system: SK-MEL-5
# KM12 = test system: KM12
# SK-OV-3 = test system: SK-OV-3
# HCT-15 = test system: HCT-15
# PC-3 = test system: PC-3
# NCI-H226 = test system: NCI-H226
# A549 = test system: A549
# SNB-19 = test system: SNB-19
# OVCAR-5 = test system: OVCAR-5
# HL-60 = test system: HL-60
# CAKI-1 = test system: CAKI-1
# DU-145 = test system: DU-145
# EKVX = test system: EKVX
# Malme-3M = test system: Malme-3M
# IGROV-1 = test system: IGROV-1
# HCC 2998 = test system: HCC 2998
# BT-549 = test system: BT-549
# COLO 205 = test system: COLO 205
# SK-MEL-2 = test system: SK-MEL-2
# Hs-578T = test system: Hs-578T
# HOP-92 = test system: HOP-92
# SF-268 = test system: SF-268
# RXF 393 = test system: RXF 393
# SNB-75 = test system: SNB-75
compound,measurement,setting,value
COc1cc(-c2oc3c(OC)c(O)c(OC)c(O)c3c(=O)c2OC)ccc1O,GI50,A498,37.3 µM (inactive)
same,GI50,ACHN,41.9 µM (inactive)
same,GI50,NCI-H460,46.1 µM (inactive)
same,GI50,HT-29,68.1 µM (inactive)
same,GI50,M14,10.4 µM (inactive)
same,GI50,SF-295,44.9 µM (inactive)
same,GI50,U-251,26.4 µM (inactive)
same,GI50,MDA-MB-231,44.2 µM (inactive)
same,GI50,UO-31,31.6 µM (inactive)
same,GI50,NCI-H23,52.4 µM (inactive)
same,GI50,OVCAR-3,24.3 µM (inactive)
same,GI50,CCRF-CEM,35.2 µM (inactive)
same,GI50,T47D,20.3 µM (inactive)
same,GI50,SN12C,59.8 µM (inactive)
same,GI50,SR,41.5 µM (inactive)
same,GI50,HOP-62,23.1 µM (inactive)
same,GI50,SW-620,94.4 µM (inactive)
same,GI50,TK-10,31.3 µM (inactive)
same,GI50,SF-539,40.4 µM (inactive)
same,GI50,HCT-116,50.6 µM (inactive)
same,GI50,LOX IMVI,26.9 µM (inactive)
same,GI50,MCF7,28.9 µM (inactive)
same,GI50,NCI-H522,29.1 µM (inactive)
same,GI50,RPMI-8226,26.1 µM (inactive)
same,GI50,UACC-257,60.5 µM (inactive)
same,GI50,MOLT-4,95.5 µM (inactive)
same,GI50,NCI/ADR-RES,50.8 µM (inactive)
same,GI50,MDA-N,48.1 µM (inactive)
same,GI50,OVCAR-8,68.5 µM (inactive)
same,GI50,786-0,38.1 µM (inactive)
same,GI50,SK-MEL-28,56.8 µM (inactive)
same,GI50,MDA-MB-435,17.8 µM (inactive)
same,GI50,UACC-62,20.7 µM (inactive)
same,GI50,K562,58.6 µM (inactive)
same,GI50,OVCAR-4,74.1 µM (inactive)
same,GI50,SK-MEL-5,29.8 µM (inactive)
same,GI50,KM12,> 100 µM (inactive)
same,GI50,SK-OV-3,17.9 µM (inactive)
same,GI50,HCT-15,28.8 µM
same,GI50,PC-3,48.9 µM (inactive)
same,GI50,NCI-H226,34.9 µM (inactive)
same,GI50,A549,65.3 µM (inactive)
same,GI50,SNB-19,> 100 µM (inactive)
same,GI50,OVCAR-5,> 100 µM (inactive)
same,GI50,HL-60,33.5 µM (inactive)
same,GI50,CAKI-1,24.8 µM (inactive)
same,GI50,DU-145,32 µM (inactive)
same,GI50,EKVX,78.7 µM (inactive)
same,GI50,Malme-3M,34.7 µM (inactive)
same,GI50,IGROV-1,25.4 µM (inactive)
same,GI50,HCC 2998,45.3 µM (inactive)
same,GI50,BT-549,37.9 µM (inactive)
same,GI50,COLO 205,> 100 µM (inactive)
same,GI50,SK-MEL-2,24.8 µM (inactive)
same,GI50,Hs-578T,14.9 µM (inactive)
CC(C)=CCC/C(C)=C/CC/C(C)=C/CC/C(C)=C/CC/C(C)=C/CC/C(C)=C/CC/C(C)=C/CC/C(C)=C/CC/C(C)=C/CO [SOLANESOL],GI50,A498,> 100 µM (inactive)
same,GI50,ACHN,> 100 µM (inactive)
same,GI50,NCI-H460,> 100 µM (inactive)
same,GI50,HT-29,> 100 µM (inactive)
same,GI50,HOP-92,> 100 µM (inactive)
same,GI50,M14,> 100 µM (inactive)
same,GI50,SF-295,> 100 µM (inactive)
same,GI50,U-251,> 100 µM (inactive)
same,GI50,MDA-MB-231,> 100 µM (inactive)
same,GI50,UO-31,> 100 µM (inactive)
same,GI50,NCI-H23,> 100 µM (inactive)
same,GI50,OVCAR-3,> 100 µM (inactive)
same,GI50,CCRF-CEM,> 100 µM (inactive)
same,GI50,T47D,> 100 µM (inactive)
same,GI50,SN12C,> 100 µM (inactive)
same,GI50,SR,> 100 µM (inactive)
same,GI50,HOP-62,> 100 µM (inactive)
same,GI50,SW-620,> 100 µM (inactive)
same,GI50,TK-10,> 100 µM (inactive)
same,GI50,SF-539,> 100 µM (inactive)
same,GI50,HCT-116,> 100 µM (inactive)
same,GI50,LOX IMVI,> 100 µM (inactive)
same,GI50,SF-268,> 100 µM (inactive)
same,GI50,RXF 393,> 100 µM (inactive)
same,GI50,MCF7,87.7 µM (inactive)
same,GI50,NCI-H522,> 100 µM (inactive)
same,GI50,RPMI-8226,> 100 µM (inactive)
same,GI50,UACC-257,> 100 µM (inactive)
same,GI50,MOLT-4,> 100 µM (inactive)
same,GI50,MDA-N,> 100 µM (inactive)
same,GI50,SNB-75,> 100 µM (inactive)
same,GI50,OVCAR-8,> 100 µM (inactive)
same,GI50,786-0,> 100 µM (inactive)
same,GI50,SK-MEL-28,> 100 µM (inactive)
same,GI50,MDA-MB-435,> 100 µM (inactive)
same,GI50,UACC-62,> 100 µM (inactive)
same,GI50,K562,> 100 µM (inactive)
same,GI50,OVCAR-4,> 100 µM (inactive)
same,GI50,SK-MEL-5,> 100 µM (inactive)
same,GI50,KM12,> 100 µM (inactive)
same,GI50,SK-OV-3,> 100 µM (inactive)
same,GI50,HCT-15,> 100 µM
same,GI50,PC-3,> 100 µM (inactive)
same,GI50,NCI-H226,> 100 µM (inactive)
same,GI50,A549,> 100 µM (inactive)
same,GI50,SNB-19,> 100 µM (inactive)
same,GI50,OVCAR-5,> 100 µM (inactive)
same,GI50,HL-60,77.4 µM (inactive)
same,GI50,CAKI-1,> 100 µM (inactive)
same,GI50,DU-145,> 100 µM (inactive)
same,GI50,EKVX,> 100 µM (inactive)
same,GI50,Malme-3M,> 100 µM (inactive)
same,GI50,IGROV-1,> 100 µM (inactive)
same,GI50,HCC 2998,> 100 µM (inactive)
same,GI50,BT-549,> 100 µM (inactive)
same,GI50,COLO 205,> 100 µM (inactive)
same,GI50,SK-MEL-2,> 100 µM (inactive)
same,GI50,Hs-578T,> 100 µM (inactive)
